Results from paper PMC12598616, “Design and optimization of caspase-1-responsive fluorescent probes for pyroptosis imaging and anti-pyroptosis drug screening” (Chemical Science, 2025).

Tested on: puncture-induced IVDD rat model
Assay: In vivo fluorescence imaging of intervertebral disc degeneration
Design: species or system Sprague-Dawley rat
Details: intradiscal injection, 0, 1, 2, 4 weeks after puncture
Experimental: and signals were collected from 530 to 610 nm.
Chondrocytes spheroid cultivation
Chondrocytes were isolated from articular cartilage and resuspended in 1mL DMEM/F12 medium containing 10 μM ITS-A. A total of […] were counted and transferred into centrifuge tubes. The cells were incubated in these tubes with half of the medium changed periodically.
Intracellular imaging in chondrocytes and 3D cell spheroids
The chondrocytes or 3D cell spheroids were seeded in dishes and cultured overnight. Subsequently, the cells or spheroids were incubated with H2O2 for 30, 60 and 90 minutes. Afterward, the cells were further incubated in medium containing 5 μM FPy1 for 1 hour. Fluorescence imaging was then performed with an excitation of 514 nm, and signals were […]
Flow cytometry assays in THP-1 cells
The flow cytometry assays were performed to evaluate the response of FPy1 in THP-1 cells. THP-1 cells were seeded in 6-well plates at a density of 10^5 cells per well and cultured overnight. […] The results were analyzed with using FlowJo […]
Fixed cells or tissue sections were washed with PBS, permeabilized with 0.2 % Triton X-100 (Sigma–Aldrich) for 20 minutes, and blocked with 5 % bovine serum albumin for 1 hour at 37 °C. […] Staining results were examined under a fluorescence microscope (Olympus, IX83-FV3000) and quantified using ImageJ (Bethesda, MD, V1.8.0, NIH). […]

For “–FLTDG– [FPy1, RhoB donor, hNR quencher]”, the “in vivo fluorescence at puncture site” value (Co5/6, Co6/7, Co7/8) was “significant enhancement of fluorescence at the corresponding areas” and the “differentiation of IVDD stages by fluorescence intensity” value was “could significantly differentiate the four different stages of IVDD”.
